# Results from PubChem BioAssay (NCI).
# Values joined by “and” are separate entries in the source; they are usually repeats but may differ in a detail not shown here. Equal values may be shown once.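 Dose response: 5 concentrations. Exposure: 48 h. Format: 96-well plates. Endpoint: linear interpolation; highest concentration if not reached. GI50 marks 50% less growth. TGI: concentration producing complete growth inhibition.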
# Experiments:
# Experiment in all cases: NCI anticancer screen, dose series, 48 h
# OVCAR-8 ovarian = test system: OVCAR-8 ovarian
# PC-3 prostate = test system: PC-3 prostate
# HOP-62 NSCLC = test system: HOP-62 NSCLC
# SF-539 CNS = test system: SF-539 CNS
# HS 578T breast = test system: HS 578T breast
# SNB-19 CNS = test system: SNB-19 CNS
# BT-549 breast = test system: BT-549 breast
# KM12 colon = test system: KM12 colon
# A549 NSCLC = test system: A549 NSCLC
# SK-OV-3 ovarian = test system: SK-OV-3 ovarian
# 786-0 renal = test system: 786-0 renal
# HCT-15 colon = test system: HCT-15 colon
# OVCAR-3 ovarian = test system: OVCAR-3 ovarian
# OVCAR-5 ovarian = test system: OVCAR-5 ovarian
# NCI/ADR-RES ovarian = test system: NCI/ADR-RES ovarian
# HOP-92 NSCLC = test system: HOP-92 NSCLC
# SF-295 CNS = test system: SF-295 CNS
# MALME-3M melanoma = test system: MALME-3M melanoma
SMILES,TGI (OVCAR-8 ovarian) [µM],TGI (PC-3 prostate) [µM],TGI (HOP-62 NSCLC) [µM],TGI (SF-539 CNS) [µM],TGI (HS 578T breast) [µM],TGI (SNB-19 CNS) [µM],TGI (BT-549 breast) [µM],TGI (KM12 colon) [µM],TGI (A549 NSCLC) [µM],TGI (SK-OV-3 ovarian) [µM],TGI (786-0 renal) [µM],TGI (HCT-15 colon) [µM],TGI (OVCAR-3 ovarian) [µM],TGI (OVCAR-5 ovarian) [µM],TGI (NCI/ADR-RES ovarian) [µM],TGI (HOP-92 NSCLC) [µM],TGI (SF-295 CNS) [µM],TGI (MALME-3M melanoma) [µM],GI50 (MALME-3M melanoma),GI50 (OVCAR-3 ovarian)
CSc1ccc(C=C2N=C(c3ccccc3)N(c3cc(C(=O)c4ccccc4)ccc3N3C(=O)/C(=C/c4ccc(SC)cc4)N=C3c3ccccc3)C2=O)cc1,> 100,> 100,> 100,79.5,> 100,> 100,> 100,> 100,> 100,> 100,> 100,> 100,55.1,> 100,> 100,> 100,> 100,–,–,–
O=c1[nH]nc(Cc2ccc(Cl)cc2)n1Nc1ccccc1,> 100,> 100,> 100,> 100,> 100,> 100,> 100,> 100,> 100,–,> 100,> 100,> 100,> 100,> 100,> 100,> 100,> 100,–,–
CCOC(=O)/C(C#N)=N\Nc1ccc(-n2c(C)nc3ccc(Br)cc3c2=O)cc1,> 100,> 100,> 100,> 100,> 100,> 100,> 100,> 100,> 100,> 100,> 100,> 100,> 100,> 100,> 100,> 100,> 100,–,–,–
COc1cc(-c2c(C(C)=O)c(-c3ccccc3)n(C3OC(COC(C)=O)C(OC(C)=O)C(OC(C)=O)C3OC(C)=O)c(=S)c2C#N)ccc1O (stereo not drawn),–,> 100,> 100,–,> 100,> 100,82.4,> 100,> 100,–,> 100,> 100,> 100,> 100,> 100,> 100,> 100,> 100,37 µM and > 100 µM,44.1 µM and > 100 µM
CCC1c2[nH]c3ccccc3c2C[C@H]2C(=O)NC(Cc3ccccc3)C(=O)N12 (stereo partly drawn),> 100,58.2,> 100,–,47.9,> 100,62.4,66,> 100,> 100,> 100,> 100,94.2,65.7,95.3,72.8,57.8,43.1,–,–
CCC/C(Cl)=N/OC(=O)Nc1cccc(F)c1,37.4,30.7,29.9,–,> 63.1,32.3,10.4,31.2,41.6,31,3.2,4.1,6.6,36.3,> 21.1,3.18,32.5,3.11,–,–
Cc1ccc(NC(=O)c2cc(S(=O)(=O)N3CCNNC3=O)c(S)cc2Cl)cc1,> 100,> 100,–,> 100,> 100,> 100,87.6,> 100,> 100,–,> 100,> 100,> 100,> 100,> 100,> 100,> 100,> 100,–,–
CC1(C)O[C@@H]([C@@H](O)[C@H](O)C2SCCCS2)[C@@H](CO)O1,> 100,> 100,> 100,–,> 100,> 100,> 100,> 100,> 100,> 100,> 100,> 100,> 100,> 100,> 100,> 100,> 100,> 100,–,–
COc1ccc(-c2c(C(=O)Nc3ccccc3)c(-c3ccccc3)n(C3OC(CO)C(O)C(O)C3O)c(=S)c2C#N)cc1 (stereo not drawn),> 100,> 100,> 100,–,> 100,> 100,> 100,> 100,> 100,–,> 100,> 100,> 100,> 100,> 100,> 100,> 100,> 100,–,–
O=C1C(c2c(O)n(-c3ccccc3)c3ccccc23)=Nc2ccccc21,> 100,80.9,> 100,–,> 100,> 100,> 100,> 100,> 100,> 100,36.7,> 100,> 100,> 100,> 100,84.9,> 100,> 100,–,–
CCOC(=O)CC(=O)Nc1c(C(=O)OCC)sc2nc(SC)nc(Nc3ccc(OC)c(OC)c3)c12,> 100,> 100,–,69.2,> 100,–,> 100,> 100,> 100,–,37,> 100,40.1,> 100,> 100,33.7,76.1,> 100,–,–
